# Measurements published in patent publication US20160346249A1 (priority 2012, published 2016).
# Several values for one entry are separate records, joined by “and”; a condition that tells them apart may be missing. Identical values can stand only once.
# How the values were obtained:
# [1] = Single dose 300 mg / 450 mg pharmacokinetic, safety and tolerability study in healthy male and female subjects; conditions: for renal clearance, individual subjects: listed as DOV 21,947; for CL renal: urine and plasma, renal clearance; for CL renal / Percent of Dose in Urine (0-24 hr): Mean (SD)
# Description: Fourteen subjects, divided equally between males and females, were enrolled in the study and randomized between test article (5/sex) and placebo (2/sex). […] All subjects met the inclusion and exclusion criteria for entry into the study as detailed in the protocol and signed an informed consent form.
# The subjects were confined to the clinical study site from Day −1 to the morning of Day 2, when they underwent a brief physical examination, clinical laboratory tests, and a physician visit before they were discharged. On Day 7, they reported to the clinical site again and were confined to the site until the morning of Day 9. At that time, they underwent a complete physical examination, clinical laboratory tests, and a physician's visit before they were discharged from the study. All subjects were fasted overnight on Days −1 and 7 from approximately 22:00 to approximately 4 hours post-dose on Days 1 and 8, at which time they received a standard lunch.
# Subjects that received the placebo (2/sex) ingested six identical looking capsules with no drug. […] Capsules on both days were ingested with 240 mL water. […] Samples were collected into lithium heparin-containing Vacutainers® and centrifuged at approximately 3000 rpm to obtain the plasma fraction. The plasma was split into two polypropylene tubes and stored at −20° C. […] The urine volumes were recorded and an aliquot was stored for drug concentration measurements.
# Validated LC/MS/MS assays were used for analyses; the assay range for both analytes in plasma and urine were 5.00 to 2000 ng/mL.
# Plasma concentration-time data for each subject were analyzed with WinNonlin, version 4.1 (Pharsight Corporation, Mountain View, Calif.) using a non-compartmental model. […] Plasma concentrations listed as not detected (ND) or below the lower limit of quantitation (LLOQ) were set to zero. The values of Cmax and Tmax were the observed values for each subject. AUC0-t was determined using the linear trapezoidal rule whenever the concentration data were increasing and the logarithmic trapezoidal rule any time that the concentration data were decreasing. The apparent λz was calculated as the negative slope of the log-linear terminal portion of the blood concentration-time curve using linear regression. To allow for accurate calculation of λz, a minimum of three observations, selected by WinNonlin, was used. The t½ was calculated as ln 2/λz. AUC0-t was extrapolated to infinity (AUC0-∞) as follows: AUC0-∞=AUC0-t+Clast/λz where Clast is the last quantifiable concentration. The apparent oral clearance (CL/F) was calculated as Dose/AUC0-∞. The apparent oral volume of distribution (Vz/F) was calculated as Dose/λz×AUC0-∞. The mean residence time from time zero to infinity (MRT0-∞) was calculated as AUMC0-∞/AUC0-∞.
# [2] = Acute intravenous or oral rat bioavailability study; assay type: in vivo; conditions: plasma, oral 10 mg/kg vs IV 5 mg/kg, both sexes, read-out: absolute oral bioavailability
# Protocol: Plasma samples were assayed using a validated LC/MS/MS assay.
# [3] = 13-week rat toxicity and toxicokinetic study; assay type: in vivo; conditions: for AUC(0-t): read-out: AUC0-24
# Protocol: In two separate experiments, toxicology and toxicokinetic studies were performed. […] Blood samples were collected on Day 0 and Day 87 of the study from up to 3 animals/gender/group.
# For toxicology assessment, clinical observations, body weight and food consumptions measures were noted periodically during the study. At termination, clinical pathology evaluations (hematology and serum chemistry) were performed, necropsies conducted, selected organs were weighed, and selected tissues examined microscopically.
# [4] = both, human, plasma, oral, 300 mg
# [5] = both, human, plasma, oral, 450 mg
# [6] = both, human, plasma, po, 300 mg
# [7] = both, human, plasma, po, 450 mg
# [8] = female, human, plasma, po, 300 mg
# [9] = female, human, plasma, po, 450 mg
# [10] = male, human, plasma, po, 300 mg
# [11] = male, human, plasma, po, 450 mg
# [12] = single oral 300 mg DOV 21,947 HCl IR, Female, N = 5
# [13] = single oral 300 mg DOV 21,947 HCl IR, Male, N = 5
# [14] = single oral 300 mg DOV 21,947 HCl IR, mean, N = 10
# [15] = single oral 450 mg DOV 21,947 HCl IR, Female, N = 5
# [16] = single oral 450 mg DOV 21,947 HCl IR, Male, N = 5
# [17] = female, Crl:CD (SD)IGS BR, rat, in vivo, po, 10 mg/kg/day, females, 10 mg/kg/day, Day 0
# [18] = female, Crl:CD(SD)IGS BR, rat, in vivo, po, 10 mg/kg/day, females, 10 mg/kg/day, Day 87
# [19] = female, Crl:CD(SD)IGS BR, rat, in vivo, po, 25 mg/kg/day, females, 25 mg/kg/day, Day 0
# [20] = female, Crl:CD(SD)IGS BR, rat, in vivo, po, 25 mg/kg/day, females, 25 mg/kg/day, Day 87
# [21] = female, Crl:CD(SD)IGS BR, rat, in vivo, po, 60 mg/kg/day, females, 60 mg/kg/day, Day 0
# [22] = female, Crl:CD(SD)IGS BR, rat, in vivo, po, 60 mg/kg/day, females, 60 mg/kg/day, Day 87
# [23] = male, Crl:CD(SD)IGS BR, rat, in vivo, po, 10 mg/kg/day, males, 10 mg/kg/day, Day 0
# [24] = male, Crl:CD(SD)IGS BR, rat, in vivo, po, 10 mg/kg/day, males, 10 mg/kg/day, Day 87
# [25] = male, Crl:CD(SD)IGS BR, rat, in vivo, po, 25 mg/kg/day, males, 25 mg/kg/day, Day 0
# [26] = male, Crl:CD(SD)IGS BR, rat, in vivo, po, 25 mg/kg/day, males, 25 mg/kg/day, Day 87
# [27] = male, Crl:CD(SD)IGS BR, rat, in vivo, po, 60 mg/kg/day, males, 60 mg/kg/day, Day 0
# [28] = male, Crl:CD(SD)IGS BR, rat, in vivo, po, 60 mg/kg/day, males, 60 mg/kg/day, Day 87
smiles,measurement,setting,value
"Clc1ccc([C@]23CNC[C@H]2C3)cc1Cl [amitifadine, (+)-1-(3,4-dichlorophenyl)-3-azabicyclo[3.1.0]hexane]",ingested dose in urine (0-24 hr),[1]; 300 mg,0.4%
same,"renal clearance, individual subjects",[1]; 300 mg single oral dose,40.6 mL/h and 62.1 mL/h and 32.1 mL/h and 47.7 mL/h and 39.2 mL/h and 66.6 mL/h and 91.7 mL/h and 47.3 mL/h and 76.4 mL/h
same,ingested dose in urine (0-24 hr),[1]; 450 mg,0.3%
same,"renal clearance, individual subjects",[1]; 450 mg single oral dose,42.2 mL/h and 31.9 mL/h and 25.4 mL/h and 22.3 mL/h and 40.1 mL/h and 34.1 mL/h and 32.1 mL/h and 79.2 mL/h and 33.7 mL/h and 47.3 mL/h
same,oral clearance,[1]; 300 and 450 mg,13.2 to 13.6 L/h
same,Cmax,[1]; [4],3370 ng/mL
same,Tmax,[1]; [4],2.15 h
same,Cmax,[1]; [5],5110 ng/mL
same,MRT,[1]; [5],6.3 to 6.4 h
same,Tmax,[1]; [5],2.43 h
same,half-life,"[1]; both, human, plasma, oral, 450 mg, elimination half-life, 300 and 450 mg",~4 h
same,AUC(0-inf),[1]; [6],19700 ng·h/mL
same,AUC(0-t),[1]; [6],19400 ng·h/mL
same,Cmax,[1]; [6],3370 ng/mL
same,MRT inf,[1]; [6],6.29 h
same,Tmax,[1]; [6],2.15 h
same,half-life,"[1]; both, human, plasma, po, 300 mg, t½ (Harmonic mean), single oral 300 mg DOV 21,947 HCl IR, N = 10",4.2 h
same,half-life,"[1]; both, human, plasma, po, 300 mg, t½, single oral 300 mg DOV 21,947 HCl IR, arithmetic mean, N = 10",4.24 h
same,AUC(0-inf),[1]; [7],30500 ng·h/mL
same,AUC(0-t),[1]; [7],30000 ng·h/mL
same,Cmax,[1]; [7],5110 ng/mL
same,MRT inf,[1]; [7],6.39 h
same,Tmax,[1]; [7],2.43 h
same,half-life,"[1]; both, human, plasma, po, 450 mg, t½ (Harmonic mean), single oral 450 mg DOV 21,947 HCl IR, N = 10",3.77 h
same,half-life,"[1]; both, human, plasma, po, 450 mg, t½, single oral 450 mg DOV 21,947 HCl IR, arithmetic mean, N = 10",3.82 h
same,CL renal,"[1]; both, human, po, 300 mg, 300 mg single oral dose",0.943 mL/min
same,CL renal,"[1]; both, human, po, 450 mg, 450 mg single oral dose",0.647 mL/min
same,AUC(0-inf),[1]; [8],20500 ng·h/mL
same,AUC(0-t),[1]; [8],20100 ng·h/mL
same,Cmax,[1]; [8],3260 ng/mL
same,MRT inf,[1]; [8],6.51 h
same,Tmax,[1]; [8],2.7 h
same,half-life,"[1]; female, human, plasma, po, 300 mg, t½ (Harmonic mean), single oral 300 mg DOV 21,947 HCl IR, N = 5",4.1 h
same,half-life,"[1]; female, human, plasma, po, 300 mg, t½, single oral 300 mg DOV 21,947 HCl IR, N = 5, arithmetic mean",4.14 h
same,AUC(0-inf),[1]; [9],29900 ng·h/mL
same,AUC(0-t),[1]; [9],29500 ng·h/mL
same,Cmax,[1]; [9],4540 ng/mL
same,MRT inf,[1]; [9],6.42 h
same,Tmax,[1]; [9],3 h
same,half-life,"[1]; female, human, plasma, po, 450 mg, t½ (Harmonic mean), single oral 450 mg DOV 21,947 HCl IR, N = 5",3.57 h
same,half-life,"[1]; female, human, plasma, po, 450 mg, t½, single oral 450 mg DOV 21,947 HCl IR, N = 5, arithmetic mean",3.58 h
same,AUC(0-inf),[1]; [10],19000 ng·h/mL
same,AUC(0-t),[1]; [10],18600 ng·h/mL
same,Cmax,[1]; [10],3480 ng/mL
same,MRT inf,[1]; [10],6.07 h
same,Tmax,[1]; [10],1.6 h
same,half-life,"[1]; male, human, plasma, po, 300 mg, t½ (Harmonic mean), single oral 300 mg DOV 21,947 HCl IR, N = 5",4.31 h
same,half-life,"[1]; male, human, plasma, po, 300 mg, t½, single oral 300 mg DOV 21,947 HCl IR, N = 5, arithmetic mean",4.34 h
same,AUC(0-inf),[1]; [11],31100 ng·h/mL
same,AUC(0-t),[1]; [11],30500 ng·h/mL
same,Cmax,[1]; [11],5680 ng/mL
same,MRT inf,[1]; [11],6.35 h
same,Tmax,[1]; [11],1.85 h
same,half-life,"[1]; male, human, plasma, po, 450 mg, t½ (Harmonic mean), single oral 450 mg DOV 21,947 HCl IR, N = 5",4 h
same,half-life,"[1]; male, human, plasma, po, 450 mg, t½, single oral 450 mg DOV 21,947 HCl IR, N = 5, arithmetic mean",4.06 h
same,CL/F,[1]; [12],13.0 L/h
same,λz,[1]; [12],0.169 h⁻¹
same,CL/F,[1]; [13],14.2 L/h
same,λz,[1]; [13],0.161 h⁻¹
same,Percent of Dose in Urine (0-24 hr),"[1]; single oral 300 mg DOV 21,947 HCl IR",0.411 (0.121) Percent of Dose
same,Mean Amount in Urine,"[1]; single oral 300 mg DOV 21,947 HCl IR, Period 0-1 hr",17.0 µg
same,Mean Amount in Urine,"[1]; single oral 300 mg DOV 21,947 HCl IR, Period 1-2 hr",115 µg
same,Mean Amount in Urine,"[1]; single oral 300 mg DOV 21,947 HCl IR, Period 2-4 hr",279 µg
same,Mean Amount in Urine,"[1]; single oral 300 mg DOV 21,947 HCl IR, Period 4-8 hr",371 µg
same,Mean Amount in Urine,"[1]; single oral 300 mg DOV 21,947 HCl IR, Period 8-12 hr",137 µg
same,Mean Amount in Urine,"[1]; single oral 300 mg DOV 21,947 HCl IR, Period 12-24 hr",115 µg
same,Mean Amount in Urine,"[1]; single oral 300 mg DOV 21,947 HCl IR, Total (0-24 hr)",1064 µg
same,CL/F,[1]; [14],13.6 L/h
same,λz,[1]; [14],0.165 h⁻¹
same,CL/F,[1]; [15],13.7 L/h
same,λz,[1]; [15],0.194 h⁻¹
same,CL/F,[1]; [16],12.8 L/h
same,λz,[1]; [16],0.173 h⁻¹
same,Percent of Dose in Urine (0-24 hr),"[1]; single oral 450 mg DOV 21,947 HCl IR",0.299 (0.143) Percent of Dose
same,Mean Amount in Urine,"[1]; single oral 450 mg DOV 21,947 HCl IR, Period 0-1 hr",9.4 µg
same,Mean Amount in Urine,"[1]; single oral 450 mg DOV 21,947 HCl IR, Period 1-2 hr",66.3 µg
same,Mean Amount in Urine,"[1]; single oral 450 mg DOV 21,947 HCl IR, Period 2-4 hr",322 µg
same,Mean Amount in Urine,"[1]; single oral 450 mg DOV 21,947 HCl IR, Period 4-8 hr",402 µg
same,Mean Amount in Urine,"[1]; single oral 450 mg DOV 21,947 HCl IR, Period 8-12 hr",195 µg
same,Mean Amount in Urine,"[1]; single oral 450 mg DOV 21,947 HCl IR, Period 12-24 hr",164 µg
same,Mean Amount in Urine,"[1]; single oral 450 mg DOV 21,947 HCl IR, Total (0-24 hr)",1159 µg
same,λz,"[1]; single oral 450 mg DOV 21,947 HCl IR, mean, N = 10",0.184 h⁻¹
same,bioavailability,[2],≥ 77%
same,test article-related deaths (number of females),"[3]; 60 mg/kg/day, first week",Three
same,female vs male AUC0-24 and Cmax difference,[3]; all dose groups,up to 85%
same,NOAEL at 13 weeks,"[3]; both sexes, Crl:CD(SD)IGS BR, rat, in vivo, oral gavage, 13 weeks",10 mg/kg/day
same,Tmax,[3]; [17],1 h
same,AUC(0-t),[3]; [17],10900 ng·h/mL
same,AUC(0-t),"[3]; female, Crl:CD(SD)IGS BR, rat, in vivo, oral, 10 mg/kg/day, females, 10 mg/kg/day, Day 87",14400 ng·h/mL
same,Cmax,[3]; [18],1850 ng/mL
same,Tmax,[3]; [18],1 h
same,Cmax,[3]; [19],2810 ng/mL
same,Tmax,[3]; [19],2 h
same,AUC(0-t),[3]; [19],31000 ng·h/mL
same,Cmax,[3]; [20],3700 ng/mL
same,Tmax,[3]; [20],2 h
same,AUC(0-t),[3]; [20],30200 ng·h/mL
same,Cmax,[3]; [21],6600 ng/mL
same,Tmax,[3]; [21],2 h
same,AUC(0-t),[3]; [21],54400 ng·h/mL
same,Cmax,[3]; [22],6530 ng/mL
same,Tmax,[3]; [22],2 h
same,AUC(0-t),[3]; [22],88100 ng·h/mL
same,decrease in mean cumulative body weight gain vs control,"[3]; females, 25 mg/kg/day",13%
same,decrease in mean cumulative body weight gain vs control,"[3]; females, 60 mg/kg/day",13%
same,AUC(0-t),"[3]; male, Crl:CD(SD)IGS BR, rat, in vivo, oral, 10 mg/kg/day, males, 10 mg/kg/day, Day 87",8130 ng·h/mL
same,Cmax,[3]; [23],863 ng/mL
same,Tmax,[3]; [23],2 h
same,AUC(0-t),[3]; [23],5940 ng·h/mL
same,Cmax,[3]; [24],1120 ng/mL
same,Tmax,[3]; [24],1 h
same,Cmax,[3]; [25],2360 ng/mL
same,Tmax,[3]; [25],2 h
same,AUC(0-t),[3]; [25],17400 ng·h/mL
same,Cmax,[3]; [26],2490 ng/mL
same,Tmax,[3]; [26],2 h
same,AUC(0-t),[3]; [26],22000 ng·h/mL
same,Cmax,[3]; [27],3680 ng/mL
same,Tmax,[3]; [27],1 h
same,AUC(0-t),[3]; [27],36300 ng·h/mL
same,Cmax,[3]; [28],5010 ng/mL
same,Tmax,[3]; [28],1 h
same,AUC(0-t),[3]; [28],60100 ng·h/mL
same,decrease in mean cumulative body weight gain vs control,"[3]; males, 25 mg/kg/day",16%
same,decrease in mean cumulative body weight gain vs control,"[3]; males, 60 mg/kg/day",30%
